According to patent publication US20230135152A1 (ACURASTEM INCORPORATED, priority 2020, published 2023):

Assays:
PIKFYVE [1] = target: T1, PIKFYVE (Homo sapiens, UniProt Q9Y2I7); assay: PIKFYVE assay (luciferase ADP-Glo kinase assay, Promega); format: biochemical; details: Table 3
How it was run: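 ADP generated in the kinase reaction was detected by ADP-Glo luminescence (luciferase).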

PIKFYVE [2] = target: T1, PIKFYVE; assay: Cell-based Pikfyve inhibition activity assay (EEA1 staining, mean vesicle size in BJ fibroblast cells); details: Table 4, 4 hours treatment, 3 μM Apilimod = 100% inhibition
How it was run: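 BJ fibroblasts treated 4 h at 37° C with eleven 3-fold doses (0.03-3000 nM), then fixed and stained for EEA1. Confocal images (20×, 16 tiles/well) analysed for mean vesicle size. Normalised to 0.5% DMSO (0%) and 3 μM apilimod (100%); dose-response fitted with variable slope.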

T1 sequence (Q9Y2I7 whole entry): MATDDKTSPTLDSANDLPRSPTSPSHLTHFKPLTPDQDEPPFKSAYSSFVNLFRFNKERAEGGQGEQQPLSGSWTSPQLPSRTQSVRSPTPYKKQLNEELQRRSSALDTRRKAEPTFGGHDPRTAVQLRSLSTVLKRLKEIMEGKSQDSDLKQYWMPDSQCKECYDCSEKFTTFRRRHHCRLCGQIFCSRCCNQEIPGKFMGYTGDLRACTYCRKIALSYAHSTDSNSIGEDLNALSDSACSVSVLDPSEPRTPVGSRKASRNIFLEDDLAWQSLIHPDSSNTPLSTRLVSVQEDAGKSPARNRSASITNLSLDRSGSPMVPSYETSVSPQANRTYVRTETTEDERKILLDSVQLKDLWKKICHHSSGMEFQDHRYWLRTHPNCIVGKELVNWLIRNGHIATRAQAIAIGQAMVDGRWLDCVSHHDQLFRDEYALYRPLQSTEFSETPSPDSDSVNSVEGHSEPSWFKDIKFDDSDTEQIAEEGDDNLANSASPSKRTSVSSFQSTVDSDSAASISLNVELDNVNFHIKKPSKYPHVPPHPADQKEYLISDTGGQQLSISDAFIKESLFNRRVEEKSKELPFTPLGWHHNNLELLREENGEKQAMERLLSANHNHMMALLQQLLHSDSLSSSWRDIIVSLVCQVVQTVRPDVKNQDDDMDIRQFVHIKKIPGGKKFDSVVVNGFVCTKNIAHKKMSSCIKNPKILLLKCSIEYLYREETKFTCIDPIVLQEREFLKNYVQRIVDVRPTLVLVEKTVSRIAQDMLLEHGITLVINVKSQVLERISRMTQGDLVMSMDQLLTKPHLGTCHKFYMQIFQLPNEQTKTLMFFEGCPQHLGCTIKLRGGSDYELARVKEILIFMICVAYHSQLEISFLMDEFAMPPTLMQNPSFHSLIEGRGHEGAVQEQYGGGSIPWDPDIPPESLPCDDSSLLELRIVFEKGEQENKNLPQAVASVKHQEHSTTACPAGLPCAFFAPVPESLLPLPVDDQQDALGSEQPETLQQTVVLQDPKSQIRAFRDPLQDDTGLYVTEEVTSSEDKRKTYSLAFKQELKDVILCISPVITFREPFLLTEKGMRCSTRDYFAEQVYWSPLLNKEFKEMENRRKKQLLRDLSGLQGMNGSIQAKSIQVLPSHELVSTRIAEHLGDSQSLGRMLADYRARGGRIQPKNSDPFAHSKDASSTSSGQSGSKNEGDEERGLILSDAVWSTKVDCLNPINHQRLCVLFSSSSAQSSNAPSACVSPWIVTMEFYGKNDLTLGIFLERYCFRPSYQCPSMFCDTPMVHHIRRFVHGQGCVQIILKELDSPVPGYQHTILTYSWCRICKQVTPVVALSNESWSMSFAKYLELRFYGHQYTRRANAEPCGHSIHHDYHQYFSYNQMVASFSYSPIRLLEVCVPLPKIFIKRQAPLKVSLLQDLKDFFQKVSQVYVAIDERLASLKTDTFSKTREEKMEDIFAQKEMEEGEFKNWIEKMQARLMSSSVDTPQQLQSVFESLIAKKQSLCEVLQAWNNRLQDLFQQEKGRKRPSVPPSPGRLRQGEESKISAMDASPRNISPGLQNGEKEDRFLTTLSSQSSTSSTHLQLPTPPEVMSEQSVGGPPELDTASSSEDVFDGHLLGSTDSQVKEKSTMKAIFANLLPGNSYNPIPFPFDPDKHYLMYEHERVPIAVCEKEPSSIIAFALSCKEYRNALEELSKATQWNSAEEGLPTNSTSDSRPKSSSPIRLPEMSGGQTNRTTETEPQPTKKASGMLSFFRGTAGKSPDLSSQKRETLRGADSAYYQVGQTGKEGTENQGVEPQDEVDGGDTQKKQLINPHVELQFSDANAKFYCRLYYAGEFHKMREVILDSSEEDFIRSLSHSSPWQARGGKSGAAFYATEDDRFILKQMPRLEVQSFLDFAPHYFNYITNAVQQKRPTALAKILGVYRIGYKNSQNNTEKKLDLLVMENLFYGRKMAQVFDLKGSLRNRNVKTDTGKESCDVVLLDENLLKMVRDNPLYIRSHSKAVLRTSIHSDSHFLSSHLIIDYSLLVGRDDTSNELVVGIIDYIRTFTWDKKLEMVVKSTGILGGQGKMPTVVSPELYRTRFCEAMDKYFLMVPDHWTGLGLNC

| SMILES | IC50 (PIKFYVE [1]) | EC50 (PIKFYVE [2]) |
| --- | --- | --- |
| CNCCc1cc(-c2ccccc2)nn1-c1cc(N2CCOCC2)nc(OCCc2cnn(C)c2)n1 [Compound 221, N-methyl-2-(1-(2-(2-(1-methyl-1H-pyrazol-4-yl)ethoxy)-6-morpholinopyrimidin-4-yl)-3-phenyl-1H-pyrazol-5-yl)ethan-1-amine] | < 3 nM | 0.02 to 0.1 µM |
| Cc1ccccc1-c1ccn(-c2cc(N3CCOCC3)nc(OCCc3cnn(C)c3)n2)n1 [Compound 125, 4-(2-(2-(1-methyl-1H-pyrazol-4-yl)ethoxy)-6-(3-(o-tolyl)-1H-pyrazol-1-yl)pyrimidin-4-yl)morpholine] | 10 to 100 nM | 0.1 to 0.5 µM |
| Cc1cccc(-c2ccn(-c3cc(N4CCOCC4)nc(NCCO)n3)n2)c1 [Compound 208, 2-((4-morpholino-6-(3-(m-tolyl)-1H-pyrazol-1-yl)pyrimidin-2-yl)amino)ethan-1-ol] | 3 to 10 nM | 0.02 to 0.1 µM |
| Cc1cccc(-c2ccn(-c3cc(N4CCOCC4)nc(OCCc4c[nH]cn4)n3)n2)c1 [Compound 119, 4-(2-(2-(1H-imidazol-4-yl)ethoxy)-6-(3-(m-tolyl)-1H-pyrazol-1-yl)pyrimidin-4-yl)morpholine] | 3 to 10 nM | 0.02 to 0.1 µM |
| Cc1cccc(-c2ccn(-c3cc(N4CCOCC4)nc(OC4COC4)n3)n2)c1 [Compound 110, 4-(2-(oxetan-3-yloxy)-6-(3-(m-tolyl)-1H-pyrazol-1-yl)pyrimidin-4-yl)morpholine] | < 3 nM | 0.1 to 0.5 µM |
| Cc1cccc(-c2ccn(-c3cc(N4CCOCC4)nc(NC(=O)CC4CC4)n3)n2)c1 [Compound 188, 2-cyclopropyl-N-(4-morpholino-6-(3-(m-tolyl)-1H-pyrazol-1-yl)pyrimidin-2-yl)acetamide] | < 3 nM | 0.1 to 0.5 µM |
| COC[C@@H](O)c1nc(N2CCOCC2)cc(-n2ccc(-c3cccc(C)c3)n2)n1 (single isomer, unassigned) [Compound 170] | 3 to 10 nM | 0.1 to 0.5 µM |
| Cn1cc(CCOc2nc(N3CCOCC3)cc(-n3ccc(C4CC4)n3)n2)cn1 [Compound 123, 4-(6-(3-cyclopropyl-1H-pyrazol-1-yl)-2-(2-(1-methyl-1H-pyrazol-4-yl)ethoxy)pyrimidin-4-yl)morpholine] | 10 to 100 nM | 0.5 to 5 µM |
| Cn1cc(CCOc2nc(N3CCOCC3)cc(-n3ccc(OCc4ccccc4F)n3)n2)cn1 [Compound 129, 4-(6-(3-((2-fluorobenzyl)oxy)-1H-pyrazol-1-yl)-2-(2-(1-methyl-1H-pyrazol-4-yl)ethoxy)pyrimidin-4-yl)morpholine] | 3 to 10 nM | 0.1 to 0.5 µM |

Other lines, results leading:

| IC50 (PIKFYVE [1]) | EC50 (PIKFYVE [2]) | SMILES |
| --- | --- | --- |
| 3 to 10 nM | 0.1 to 0.5 µM | CCc1cccc(-c2ccn(-c3cc(N4CCOCC4)nc([C@H](CO)OC)n3)n2)c1 [Compound 273, (R)-2-(4-(3-(3-ethylphenyl)-1H-pyrazol-1-yl)-6-morpholinopyrimidin-2-yl)-2-methoxyethan-1-ol] |
| < 3 nM | 0.1 to 0.5 µM | COC(CO)(c1ccccc1)c1nc(N2CCOCC2)cc(-n2ccc(-c3cccc(C)c3)n2)n1 (stereo not drawn) [Compound 228, 2-methoxy-2-(4-morpholino-6-(3-(m-tolyl)-1H-pyrazol-1-yl)pyrimidin-2-yl)-2-phenylethan-1-ol] |
| < 3 nM | 0.02 to 0.1 µM | Cc1cccc(-c2ccn(-c3cc(N4CCOCC4)nc(C#CC(O)c4cnn(C)c4)n3)n2)c1 (stereo not drawn) [Compound 230, 1-(1-methyl-1H-pyrazol-4-yl)-3-(4-morpholino-6-(3-(m-tolyl)-1H-pyrazol-1-yl)pyrimidin-2-yl)prop-2-yn-1-ol] |
| 10 to 100 nM | > 5 µM | Cc1cc(Oc2ccn(-c3cc(N4CCOCC4)nc(OCCc4cnn(C)c4)n3)n2)ccn1 [Compound 302, 4-(2-(2-(1-methyl-1H-pyrazol-4-yl)ethoxy)-6-(3-((2-methylpyridin-4-yl)ox)-1H-pyrazol-1-yl)pyrimidin-4-yl)morpholine] |
| 10 to 100 nM | 0.5 to 5 µM | Cc1cccc(-c2ccn(-c3cc(N4CCOCC4)nc([C@H](CO)OC(F)F)n3)n2)c1 (single isomer, unassigned) [Compound 310] |
| 3 to 10 nM | 0.5 to 5 µM | CO[C@@H](CO)c1nc(N2CCOCC2)cc(-n2ccc(-c3cn(C)c4ccccc34)n2)n1 (single isomer, unassigned) [Compound 321] |
